Laboratory results as given in US20240246905A1 (University of Leicester, priority 2021, published 2024).
In brackets after ≈: the same amount, converted by molar mass.

Tests used:
red blood cells = assay: Hemolysis assay (CO-ADD); format: cell-based; conditions: 32 μg/mL highest concentration tested
Description: A problem often encountered by emerging drugs is hemolysis, also known as drug-induced immune hemolytic anemia.

[1] = test system: Staphylococcus aureus 15981; assay: Disc diffusion (Kirby-Bauer), zone of inhibition; format: cell-based; conditions: Staphylococcus aureus 15981; 500 μg/mL; '/' = no zone; read-out: Zone of inhibition
In short: (§1)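 Kirby-Bauer per CLSI 2017: 1 in 200 dilutions of overnight cultures (LB for Gram-negatives, TSB for Gram-positives) spread on Mueller-Hinton agar. Discs loaded with 50 μL antibiotic were added and plates incubated 24 h at 37 °C. Zone of inhibition recorded.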

MRSA 252 [2] = assay: Disc diffusion (Kirby-Bauer), zone of inhibition; format: cell-based, Staphylococcus aureus; conditions: Staphylococcus aureus, 500 μg/mL, '/' = no zone, read-out: Zone of inhibition
In short: as §1

MSSA 476 [3] = assay: Disc diffusion (Kirby-Bauer), zone of inhibition; format: cell-based, Staphylococcus aureus; conditions: Staphylococcus aureus, 500 μg/mL, '/' = no zone, read-out: Zone of inhibition
In short: as §1

HEK293 cells = assay: Cytotoxicity assay, resazurin (CO-ADD)
Protocol: The cytotoxicity studies were performed by CO-ADD (The Community for Open Antimicrobial Drug Discovery), funded by the Wellcome trust (UK) and the University of Queensland, Australia.^(28) In this study, the compounds were screened against a human embryonic kidney cell line, HEK293, at a set concentration of 32 μg/mL.
DMEM supplemented with 10% FBS was used as growth media and the cells were incubated together with the compounds for 20 hours at 37° C. in 5% CO2.
Cytotoxicity (or cell viability) was measured by fluorescence, excitation: 560/10 nm, emission: 590/10 nm (F560/590), after addition of 5 μL of 25 μg/mL Resazurin (2.3 μg/mL final concentration) and after incubation for further 3 h at 37° C. in 5% CO2. The fluorescence intensity was measured using a Tecan M1000 Pro monochromator plate reader, using automatic gain calculation CC50 (concentration at 50% cytotoxicity) were calculated by curve fitting the inhibition values vs. log(concentration) using sigmoidal dose-response function, with variable fitting values for bottom, top and slope. The curve fitting was implemented using Pipeline Pilot's dose-response component.

MRSA 252 [4] = assay: MIC, broth micro-dilution; format: cell-based, Staphylococcus aureus; conditions: Staphylococcus aureus, read-out: MIC
In short: (§2)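 Broth micro-dilution followed CLSI 2017: 1:2 antibiotic dilutions in TSB were inoculated at 5×10^5 CFU/mL. OD was recorded every 12 min over 18 h at 37 °C, and MIC was derived from sigmoidal dose-response fits.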

MSSA 476 [5] = assay: MIC, broth micro-dilution; format: cell-based, Staphylococcus aureus; conditions: Staphylococcus aureus, MSSA, read-out: MIC
In short: as §2

[6] = test system: various Staphylococcus aureus strains; assay: Disc diffusion, Staphylococcus aureus strain study; format: cell-based; conditions: Staphylococcus aureus, 500 μg/mL
Description: At this point in the study it was decided to perform a disc diffusion assay study on 50 S. aureus strains. […] Moreover, by employing a range of mutant strains of S. aureus with specific gene-deletions, it was believed that if particular strains were resistant to the lead compounds, it could provide insights on the likely protein target of the lead antibiotics. However, all six of the compounds utilized in this study were able to inhibit growth of all 50 strains of S. aureus assayed at the chosen concentration of 500 μg/mL concentration (Table 5).
E. coli DH5α, P. aeruginosa PA01 and the 53 S. aureus strains were recovered from frozen (−80° C.) glycerol (15% v/v) stocks on Lysogeny agar (LA)—Gram negative and trypticase soy agar (TSA)—plates at 37° C. for 24 hours. Single colonies were placed in either 3 mL Lysogeny broth (LB)—Gram negative or trypticase soy broth (TSB)—Gram positive and incubated at 37° C., 250 rpm for 18 hours.
The antibiotic activity was determined using a Kirby-Bauer method according to Clinical Standard Laboratory Institute (CSLI) Guidelines (2017). Briefly, 180 μL of a 1 in 200 dilution (in LB or TSB) of overnight cultures of selected Gram negative and Gram positive bacteria were applied to an agar plate containing the solid growth medium, Mueller-Hinton agar (MHA). Sterile discs, inoculated with 50 μL of antibiotic, were first added to the agar plate before the plates were incubated for 24 hours at 37° C. Following incubation, the zone of inhibition (if it existed) was recorded.

With `[C-]#[N+]C=Cc1cc(Br)ccc1O` [Compound 13] as the molecule, how does the “Hemolytic activity (HC10)” value (red blood cells) read?
Its value is >32 µg/mL.

And the zone of inhibition at 500 µg/mL [1]?
Its zone of inhibition at 500 µg/mL is 18 mm.

What about the zone of inhibition at 500 µg/mL (MRSA 252 [2]) of the same molecule?
The zone of inhibition at 500 µg/mL was 22 mm.

What about the zone of inhibition at 500 µg/mL (MSSA 476 [3]) of the same molecule?
Its zone of inhibition at 500 µg/mL is 22 mm.

What about the “Concentration toxic to HEK 293 cells” value (HEK293 cells; HEK 293) of the same molecule?
The value was >32000 ng/mL.

And the “toxicity towards the HEK293 cell line (in words)” value (HEK293 cells; set concentration of 32 μg/mL)?
The value was “no toxicity”.

What about the MIC (MRSA 252 [4]) of the same molecule?
Its MIC is 35 µg/mL (≈ 156 µM).

And the MIC (MSSA 476 [5])?
Its MIC is 145 µg/mL (≈ 647 µM).

What about the zone of inhibition at 500 µg/mL ([6]; strain ASARM 61) of the same molecule?
The zone of inhibition at 500 µg/mL was 20 mm.

What about the zone of inhibition at 500 µg/mL ([6]; strain ASARM 70) of the same molecule?
The zone of inhibition at 500 µg/mL was 20 mm.

What about the zone of inhibition at 500 µg/mL ([6]; strain ASARM 71) of the same molecule?
The zone of inhibition at 500 µg/mL was 20 mm.

What about the zone of inhibition at 500 µg/mL ([6]; strain ASARM 72) of the same molecule?
Its zone of inhibition at 500 µg/mL is 16 mm.

What about the zone of inhibition at 500 µg/mL ([6]; strain ASARM 73) of the same molecule?
Its zone of inhibition at 500 µg/mL is 20 mm.

And the zone of inhibition at 500 µg/mL ([6]; strain ASARM 75)?
The zone of inhibition at 500 µg/mL was 20 mm.

What about the zone of inhibition at 500 µg/mL ([6]; strain ASARM 76) of the same molecule?
The zone of inhibition at 500 µg/mL was 20 mm.

And the zone of inhibition at 500 µg/mL ([6]; strain ASARM 77)?
The zone of inhibition at 500 µg/mL was 20 mm.

And the zone of inhibition at 500 µg/mL ([6]; strain ASARM 79)?
Its zone of inhibition at 500 µg/mL is 20 mm.

And the zone of inhibition at 500 µg/mL ([6]; strain ASARM 80)?
The zone of inhibition at 500 µg/mL was 18 mm.

And the zone of inhibition at 500 µg/mL ([6]; strain EOE 3)?
The zone of inhibition at 500 µg/mL was 24 mm.

What about the zone of inhibition at 500 µg/mL ([6]; strain EOE 23) of the same molecule?
The zone of inhibition at 500 µg/mL was 22 mm.

And the zone of inhibition at 500 µg/mL ([6]; strain EOE 30)?
Its zone of inhibition at 500 µg/mL is 22 mm.

And the zone of inhibition at 500 µg/mL ([6]; strain EOE 35)?
The zone of inhibition at 500 µg/mL was 22 mm.

What about the zone of inhibition at 500 µg/mL ([6]; strain EOE 41) of the same molecule?
The zone of inhibition at 500 µg/mL was 20 mm.

What about the zone of inhibition at 500 µg/mL ([6]; strain EOE 42) of the same molecule?
Its zone of inhibition at 500 µg/mL is 20 mm.

What about the zone of inhibition at 500 µg/mL ([6]; strain EOE 45) of the same molecule?
The zone of inhibition at 500 µg/mL was 24 mm.

And the zone of inhibition at 500 µg/mL ([6]; strain EOE 52)?
The zone of inhibition at 500 µg/mL was 22 mm.

What about the zone of inhibition at 500 µg/mL ([6]; strain EOE 54) of the same molecule?
The zone of inhibition at 500 µg/mL was 22 mm.

And the zone of inhibition at 500 µg/mL ([6]; strain EOE 57)?
Its zone of inhibition at 500 µg/mL is 25 mm.

What about the zone of inhibition at 500 µg/mL ([6]; strain S139_7_7) of the same molecule?
The zone of inhibition at 500 µg/mL was 24 mm.

What about the zone of inhibition at 500 µg/mL ([6]; strain S197_1_1) of the same molecule?
Its zone of inhibition at 500 µg/mL is 26 mm.

What about the zone of inhibition at 500 µg/mL ([6]; strain S197_1_8) of the same molecule?
The zone of inhibition at 500 µg/mL was 20 mm.

What about the zone of inhibition at 500 µg/mL ([6]; strain S197_1_9) of the same molecule?
Its zone of inhibition at 500 µg/mL is 20 mm.

What about the zone of inhibition at 500 µg/mL ([6]; strain S197_1_10) of the same molecule?
The zone of inhibition at 500 µg/mL was 20 mm.

And the zone of inhibition at 500 µg/mL ([6]; strain S295_1_1)?
The zone of inhibition at 500 µg/mL was 22 mm.

And the zone of inhibition at 500 µg/mL ([6]; strain S295_1_2)?
Its zone of inhibition at 500 µg/mL is 20 mm.

What about the zone of inhibition at 500 µg/mL ([6]; strain S295_1_3) of the same molecule?
The zone of inhibition at 500 µg/mL was 20 mm.

What about the zone of inhibition at 500 µg/mL ([6]; strain S364_5_11) of the same molecule?
Its zone of inhibition at 500 µg/mL is 20 mm.

What about the zone of inhibition at 500 µg/mL ([6]; strain S364_5_12) of the same molecule?
Its zone of inhibition at 500 µg/mL is 25 mm.

What about the zone of inhibition at 500 µg/mL ([6]; strain Sa_TPS 3026) of the same molecule?
Its zone of inhibition at 500 µg/mL is 20 mm.

What about the zone of inhibition at 500 µg/mL ([6]; strain Sa_TPS 3072) of the same molecule?
Its zone of inhibition at 500 µg/mL is 21 mm.

And the zone of inhibition at 500 µg/mL ([6]; strain Sa_TPS 3092)?
Its zone of inhibition at 500 µg/mL is 20 mm.

And the zone of inhibition at 500 µg/mL ([6]; strain Sa_TPS 3097)?
The zone of inhibition at 500 µg/mL was 20 mm.

What about the zone of inhibition at 500 µg/mL ([6]; strain Sa_TPS 3103) of the same molecule?
Its zone of inhibition at 500 µg/mL is 20 mm.

And the zone of inhibition at 500 µg/mL ([6]; strain Sa_TPS 3104)?
The zone of inhibition at 500 µg/mL was 22 mm.

What about the zone of inhibition at 500 µg/mL ([6]; strain Sa_TPS 3106) of the same molecule?
Its zone of inhibition at 500 µg/mL is 16 mm.

And the zone of inhibition at 500 µg/mL ([6]; strain Sa_TPS 3118)?
The zone of inhibition at 500 µg/mL was 22 mm.

And the zone of inhibition at 500 µg/mL ([6]; strain Sa_TPS 3133)?
Its zone of inhibition at 500 µg/mL is 20 mm.

What about the zone of inhibition at 500 µg/mL ([6]; strain Sa_TPS 3134) of the same molecule?
The zone of inhibition at 500 µg/mL was 18 mm.

And the zone of inhibition at 500 µg/mL ([6]; strain USFL 008)?
Its zone of inhibition at 500 µg/mL is 18 mm.

What about the zone of inhibition at 500 µg/mL ([6]; strain USFL 009) of the same molecule?
The zone of inhibition at 500 µg/mL was 22 mm.

And the zone of inhibition at 500 µg/mL ([6]; strain USFL 012)?
The zone of inhibition at 500 µg/mL was 22 mm.

And the zone of inhibition at 500 µg/mL ([6]; strain USFL 016)?
The zone of inhibition at 500 µg/mL was 20 mm.

What about the zone of inhibition at 500 µg/mL ([6]; strain USFL 018) of the same molecule?
Its zone of inhibition at 500 µg/mL is 20 mm.

What about the zone of inhibition at 500 µg/mL ([6]; strain USFL 020) of the same molecule?
Its zone of inhibition at 500 µg/mL is 20 mm.

And the zone of inhibition at 500 µg/mL ([6]; strain USFL 021)?
Its zone of inhibition at 500 µg/mL is 22 mm.

And the zone of inhibition at 500 µg/mL ([6]; strain USFL 028)?
Its zone of inhibition at 500 µg/mL is 22 mm.

What about the zone of inhibition at 500 µg/mL ([6]; strain USFL 035) of the same molecule?
Its zone of inhibition at 500 µg/mL is 22 mm.

What about the zone of inhibition at 500 µg/mL ([6]; strain USFL 054) of the same molecule?
The zone of inhibition at 500 µg/mL was 22 mm.
